Results as given in US20140303229A1, “NOVEL SKIN MOISTURIZING COMPOSITIONS” (priority 2007, published 2014).

System: skin
Assay: 14-day cumulative irritation potential study (predictive occlusive patch test)
Text: Occlusive patches with 100 micro liters of test product were applied to the skin daily for 14 days. Patches with sodium lauryl sulfate, 1.0% was used as a positive control while white petrolatum was used as a negative control.

| Compound | Classification (irritation classification according to Berger and Bowman) (based on standardized cumulative irritation scores, 14 days, listed as Sodium lauryl sulfate 1.0%, sulfate) | Classification (irritation classification according to Berger and Bowman) (based on standardized cumulative irritation scores, 14 days, sulfate) | Standardized Cumulative Score (cumulative irritation score) (occlusive patches, 100 micro liters, daily for 14 days) | Category (irritation classification of Berger and Bowman) (in vivo) | Classification (irritation classification according to Berger and Bowman) (in vivo) |
| --- | --- | --- | --- | --- | --- |
| CCCCCCCCCCCCOS(=O)(=O)[O-].[Na+] [Sodium lauryl sulfate, 1.0%, Sodium lauryl sulfate] | possibly mild | Possibly mild in | 595.4 | – | – |
| White Petrolatum | – | – | – | I | Mild material - |
